Results reported in patent US20080269142A1, “ENDOGENOUS THIADIAZABICYCLO GLUTATHIONE-ADDUCT” (priority 2006, published 2008).

Tested on: EA.hy 926 endothelial cells
Assay: Apoptosis (morphological changes) in treated EA.hy 926 endothelial cells
Type: cell-based
Protocol: EA.hy 926 endothelial cells were incubated in DMEM (10 mL) containing 10% FBS, 100 unit/mL of penicillin, and 100 μg/mL of streptomycin at 37° C. in an atmosphere of 5% CO2. After the cells reached 70-80% confluence (approximately 2×10^6 cells), the complete DMEM was removed and replaced with FBS-free DMEM for treatment with dimethyl-TOG.
As the result, there was little accumulation of TOG in the cells. […] Therefore, high doses of dimethyl-TOG (100 μM and 200 μM) were chosen to detect an apoptosis-inducing effect. When the cells were treated with dimethyl-TOG, typical morphological changes of apoptosis, such as detachment from the substrate, shrinkage, and membrane blebbing were observed as early as 1 h after treatment.
GGT mediates the first step of hydrolysis of extracellular GSH. The hydrolyzed amino acids will be transported back to the cells for GSH biosynthesis (4). Without GGT activity, there would be accumulation of GSH in the extracellular medium and depletion of intracellular GSH.

Compound: CCCCCC(=O)/C=C/C=O [ONE, 4-oxo-2(E)-nonenal]
- apoptosis after 8 h of incubation (10 μM ONE, 8 h): most of the cells treated with 10 μM ONE went to complete apoptosis
- apoptosis-inducing effect (ONE 1 μM alone): no apoptosis-inducing effect
